The values that follow are results of earlier work, collected in patent US20170218035A1, “COMPOSITIONS AND METHODS FOR TREATMENT WITH HEMOPEXIN” (Bayer HealthCare LLC, priority 2014, published 2017).

As usually defined, the Kd is the free concentration of one partner at which half of the binding sites on the other are occupied at equilibrium, for simple one-to-one binding.

The target of the series is T1, Hemopexin (plasma based glycoprotein) (Homo sapiens, UniProt P02790).
T1 sequence (P02790 24-462): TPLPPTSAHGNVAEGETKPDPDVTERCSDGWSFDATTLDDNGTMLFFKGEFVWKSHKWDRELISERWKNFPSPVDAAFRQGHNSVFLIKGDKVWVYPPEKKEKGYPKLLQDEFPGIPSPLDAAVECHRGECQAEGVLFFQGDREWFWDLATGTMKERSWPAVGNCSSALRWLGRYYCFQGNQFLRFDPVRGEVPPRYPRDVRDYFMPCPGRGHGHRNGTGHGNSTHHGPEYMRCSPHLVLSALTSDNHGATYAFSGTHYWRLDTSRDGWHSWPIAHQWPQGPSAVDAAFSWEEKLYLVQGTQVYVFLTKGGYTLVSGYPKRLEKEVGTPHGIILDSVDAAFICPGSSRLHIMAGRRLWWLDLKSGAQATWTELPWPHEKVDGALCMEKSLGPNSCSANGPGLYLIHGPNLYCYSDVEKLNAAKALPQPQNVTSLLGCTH
As to conditions: highest known binding affinity for heme; reported value.

`C=CC1=C(C)c2cc3[nH]c(cc4nc(cc5[nH]c(cc1n2)c(C)c5CCC(=O)O)C(CCC(=O)O)=C4C)c(C)c3C=C.[Fe]` [heme]: the Kd is below 1 pM.
